{"source": "patent US20100137327A1", "about": "“NOVEL SEM[…] CARBONYLHYDRAZIDE DERIVATIVES USEFUL AS POTASSIUM CHANNEL MODULATORS” (NeuroSearch A/S, priority 2007, published 2010)", "target": "BK channels heterologously expressed in Xenopus laevis oocytes (Homo sapiens, UniProt Q12791)", "sequence (Q12791 whole entry)": "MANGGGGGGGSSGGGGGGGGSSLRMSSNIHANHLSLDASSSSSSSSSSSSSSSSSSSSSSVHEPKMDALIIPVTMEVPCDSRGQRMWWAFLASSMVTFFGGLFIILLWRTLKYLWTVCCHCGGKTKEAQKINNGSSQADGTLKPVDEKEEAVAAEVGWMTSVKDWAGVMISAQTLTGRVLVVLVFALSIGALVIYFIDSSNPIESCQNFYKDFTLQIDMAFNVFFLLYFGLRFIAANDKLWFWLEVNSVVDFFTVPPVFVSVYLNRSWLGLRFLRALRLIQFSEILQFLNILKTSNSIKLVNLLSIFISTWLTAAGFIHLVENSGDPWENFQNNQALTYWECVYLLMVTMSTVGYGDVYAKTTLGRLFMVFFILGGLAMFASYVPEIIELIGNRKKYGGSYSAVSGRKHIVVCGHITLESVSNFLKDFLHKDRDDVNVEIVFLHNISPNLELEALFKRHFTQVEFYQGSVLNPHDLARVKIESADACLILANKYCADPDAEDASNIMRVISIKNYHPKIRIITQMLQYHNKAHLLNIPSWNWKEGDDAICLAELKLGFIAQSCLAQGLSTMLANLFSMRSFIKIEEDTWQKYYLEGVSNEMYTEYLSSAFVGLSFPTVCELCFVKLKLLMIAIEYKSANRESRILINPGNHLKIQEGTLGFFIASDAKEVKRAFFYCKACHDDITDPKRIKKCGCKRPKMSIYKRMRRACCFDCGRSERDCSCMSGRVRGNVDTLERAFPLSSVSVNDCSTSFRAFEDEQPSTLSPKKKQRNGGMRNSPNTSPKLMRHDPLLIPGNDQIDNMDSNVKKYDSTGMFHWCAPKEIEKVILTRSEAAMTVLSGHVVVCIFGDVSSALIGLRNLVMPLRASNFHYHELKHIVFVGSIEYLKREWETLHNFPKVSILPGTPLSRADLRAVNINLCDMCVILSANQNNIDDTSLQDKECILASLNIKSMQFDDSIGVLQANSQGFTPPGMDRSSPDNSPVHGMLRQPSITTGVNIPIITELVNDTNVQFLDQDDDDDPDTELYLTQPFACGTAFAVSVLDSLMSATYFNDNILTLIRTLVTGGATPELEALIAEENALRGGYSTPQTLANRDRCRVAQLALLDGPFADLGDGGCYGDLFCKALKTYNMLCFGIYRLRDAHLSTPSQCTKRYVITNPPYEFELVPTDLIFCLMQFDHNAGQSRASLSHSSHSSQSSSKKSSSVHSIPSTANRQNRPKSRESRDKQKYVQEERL", "conditions": "30 μM compound added after stable current level, step from −40 mV (5 s) to +30 mV (1 s), repeated, FIG. 1", "description": "The electrical current through the BK channel is measured conventional two-electrode voltage clamp. BK current is activated by repeated step protocols. In brief, this protocol goes from a resting membrane potential of −40 mV lasting for 5 s to a depolarised step to +30 mV lasting for 1 s. The protocol was repeated continuously.\nHaving reached a stable current level, Compound A (30 μM), was added."}
{"smiles": "O=C(NNc1ccc(-c2ccc(C(F)(F)F)cc2)cc1-c1nnn[nH]1)c1cc(C(F)(F)F)cc(C(F)(F)F)c1", "note": "[Compound A, 3,5-Bis-trifluoromethyl-benzoic acid N40-[3-(1H-tetrazol-5-yl)-4′-trifluoromethyl-biphenyl-4-yl]-hydrazide]", "values": [{"measurement": "current activated by depolarisation (BK channel opening activity)", "result": "marked increase"}]}
